{
  "source": "patent US10702604B2",
  "about": "“Lipid nanocapsules comprising a retinoid, nanodispersion and composition containing the same, process for preparing the same and use thereof in dermatology” (GALDERMA RESEARCH & DEVELOPMENT, priority 2012, dated 2020)",
  "key": {"ear of BALB/C mice": {"system": "ear of BALB/C mice", "test": "Tolerance study: pro-inflammatory effect after single application to the mouse ear (ear thickness)", "assay_type": "in vivo", "conditions": "single topical application, 0.01% in acetone, 20 μl", "experimental": "The aim of the study is to evaluate the effect of a composition according to the invention on the pro-inflammatory activity associated with retinoids in general.\nA single application of 20 μl of the test products was administered to the ear of the mice on day 1. Clinical observations and measurements of the mouse ear thickness, directly linked to inflammation, are performed from day 2 up to day 12."}, "[1]": {"test": "Chemical stability of compound A in gel compositions (HPLC-UV assay)", "assay_type": "physicochemical", "conditions": "4° C., room temperature and 40° C., up to 6 to 7 months", "experimental": "Compositions 1 and 2 according to Example 3 were placed under various stability conditions: 4° C., room temperature and 40° C., and were monitored for 6 to 7 months. At each stability checkpoint, compound A was assayed by HPLC-UV."}, "[2]": {"test": "Chemical stability of compound A in oily phases (HPLC-UV)", "assay_type": "physicochemical", "experimental": "The stability of the active agent was evaluated by liquid chromatography coupled to a UV detector (HPLC-UV)."}, "[3]": {"test": "Maximum solubility of compound A in various oily phases", "assay_type": "physicochemical"}, "[4]": {"conditions": "in caprylic/capric acid triglycerides (Miglyol 812N)"}, "[5]": {"conditions": "in diisopropyl adipate (Crodamol DA)"}, "[6]": {"conditions": "in macrogol oleate (Labrafil M1944CS)"}, "[7]": {"conditions": "in propylene glycol dicaprylate/dicaprate (Myritol PC)"}, "[8]": {"conditions": "in propylene glycol monolaurate (Lauroglycol FCC)"}},
  "data": [
    {"compound": "CC(C)(C)c1cc(-c2cc(-c3ccc(C(=O)O)cc3)ccc2OCCO)ccc1N1CCCC1", "note": "[Compound A, 3″-tert-butyl-4′-(2-hydroxyethoxy)-4″-pyrrolidin-1-yl-[1,1′;3′,1″]-terphenyl-4-carboxylic acid]", "values": [
      {"measurement": "Increase in the thickness of the mouse ear versus acetone alone", "setting": "ear of BALB/C mice", "result": 59, "unit": "%"},
      {"measurement": "Chemical stability of compound A in the gel compositions", "setting": "[1]", "result": "chemically stable"},
      {"measurement": "Stability", "setting": "[2]; [4]", "result": 6, "unit": "months RT/40 °C"},
      {"measurement": "Stability", "setting": "[2]; [5]", "result": 6, "unit": "months RT/40 °C"},
      {"measurement": "Stability", "setting": "[2]; [6]", "result": 6, "unit": "months RT/40 °C"},
      {"measurement": "Stability", "setting": "[2]; in octyldodecanol (Eutanol G)", "result": "Unstable"},
      {"measurement": "Stability", "setting": "[2]; [7]", "result": "Unstable"},
      {"measurement": "Stability", "setting": "[2]; in propylene glycol monocaprylate (Capryol 90), RT = room temperature", "result": 6, "unit": "months RT/40 °C"},
      {"measurement": "Stability", "setting": "[2]; [8]", "result": 6, "unit": "months RT/40 °C"},
      {"measurement": "Stability", "setting": "[2]; in sweet almond oil", "result": 6, "unit": "months RT/40 °C"},
      {"measurement": "Maximum solubility", "setting": "[3]; [4]", "result": 0.019, "unit": "% m/m"},
      {"measurement": "Maximum solubility", "setting": "[3]; [5]", "result": 0.297, "unit": "% m/m"},
      {"measurement": "Maximum solubility", "setting": "[3]; [6]", "result": 0.156, "unit": "% m/m"},
      {"measurement": "Maximum solubility", "setting": "[3]; in mineral oil", "result": 0.0001, "unit": "% m/m"},
      {"measurement": "Maximum solubility", "setting": "[3]; in octyldodecanol (Eutanol G)", "result": 0.137, "unit": "% m/m"},
      {"measurement": "Maximum solubility", "setting": "[3]; [7]", "result": 0.069, "unit": "% m/m"},
      {"measurement": "Maximum solubility", "setting": "[3]; in propylene glycol monocaprylate (Capryol 90)", "result": 0.802, "unit": "% m/m"},
      {"measurement": "Maximum solubility", "setting": "[3]; [8]", "result": 0.296, "unit": "% m/m"},
      {"measurement": "Maximum solubility", "setting": "[3]; in sweet almond oil", "result": 0.011, "unit": "% m/m"}
    ]}
  ]
}
